From ChEMBL document CHEMBL5518206, “Hit-to-Lead Identification and Validation of a Triaromatic Pleuromutilin Antibiotic Candidate” (J Med Chem, 2024) come the findings set out here.

Active and inactive are the calls of the source.

In data set [1] the test system is Staphylococcus aureus. The experiment in a line: Induction of resistant development in -(6-(6-(Piperazin-1-y1)-9H-purin-9-y)methyl)pyridin-3-y1)-1H-1,2,3-triazol-1-yl)-22-deoxypleuromutilin-16 passages resistance developed Staphylococcus aureus USA300 FPR3757 assessed as fold increase in MIC at sub-MIC concentration measured after 18 passages with conjugate by serial passage assay. The class given is functional.

Data set [2] deals with Staphylococcus aureus. The experiment in a line: Induction of resistant development in -(6-(6-(Piperazin-1-y1)-9H-purin-9-y)methyl)pyridin-3-y1)-1H-1,2,3-triazol-1-yl)-22-deoxypleuromutilin-16 passages resistance developed Staphylococcus aureus USA300 FPR3757 assessed as fold increase in MIC at sub-MIC concentration measured after 13 passages with conjugate by serial passage assay. Format: functional.

The target in another data set is Cytochrome P450 3A4 (Homo sapiens, UniProt P08684). The experiment in a line: Inhibition of CYP3A4 in pooled human liver microsomes using midazolam as substrate. Format: ADME, Microsome. On the technique in general: Liver microsomes are a subcellular fraction often used to study metabolism.
The subject of data set [3] is Staphylococcus aureus. The experiment in a line: Induction of resistant development in -(6-(6-(Piperazin-1-y1)-9H-purin-9-y)methyl)pyridin-3-y1)-1H-1,2,3-triazol-1-yl)-22-deoxypleuromutilin-16 passages resistance developed Staphylococcus aureus USA300 FPR3757 assessed as fold increase in MIC at sub-MIC concentration measured after 9 passages with conjugate by serial passage assay. Format: functional.

Data set [4] deals with Staphylococcus epidermidis. As to the kind of experiment: Antibacterial activity against Staphylococcus epidermidis assessed as inhibition of visible growth incubated for 20 to 24 hrs by microbroth serial dilution assay. The class given is functional, organism-based. As to conditions: time 20-24 hrs. Background: Broth dilution looks for growth in wells or tubes with falling amounts of substance.

Data set [5] deals with Staphylococcus aureus. As to the kind of experiment: Induction of resistant development in -(6-(6-(Piperazin-1-y1)-9H-purin-9-y)methyl)pyridin-3-y1)-1H-1,2,3-triazol-1-yl)-22-deoxypleuromutilin-16 passages resistance developed Staphylococcus aureus USA300 FPR3757 assessed as fold increase in MIC at sub-MIC concentration measured after 5 passages with conjugate by serial passage assay. Format: functional.

Data set [6] relates to Staphylococcus aureus. The experiment in a line: Induction of resistant development in lefamulin 5 passages resistance developed Staphylococcus aureus USA300 FPR3757 assessed as fold increase in MIC at sub-MIC concentration measured after 28 passages with conjugate by serial passage assay. Format: functional.
The test system of data set [7] is Staphylococcus aureus. The experiment in a line: Induction of resistant development in lefamulin 5 passages resistance developed Staphylococcus aureus USA300 FPR3757 assessed as fold increase in MIC at sub-MIC concentration measured after 22 passages with conjugate by serial passage assay. The class given is functional.
For data set [8], the target named is ATP-dependent translocase ABCB1 (Homo sapiens, UniProt P08183). The experiment in a line: Inhibition of P-gp in human Caco-2 cells using digoxin as substrate. The class given is cell-based.
Data set [9] has as its system Staphylococcus aureus. The experiment in a line: Induction of resistant development in lefamulin 5 passages resistance developed Staphylococcus aureus USA300 FPR3757 assessed as fold increase in MIC at sub-MIC concentration measured after 9 passages with conjugate by serial passage assay. Format: functional.
For data set [10], the target named is Voltage-gated inwardly rectifying potassium channel KCNH2 (Homo sapiens, UniProt Q12809). As to the kind of experiment: Inhibition of K+ ion channel activity of hERG. The class given is toxicity. (hERG is a cardiac potassium channel; its block is linked to QT prolongation.)
In data set [11] the test system is Staphylococcus aureus. As to the kind of experiment: Induction of resistant development in lefamulin 5 passages resistance developed Staphylococcus aureus USA300 FPR3757 assessed as fold increase in MIC at sub-MIC concentration measured after 5 passages with conjugate by serial passage assay. The class given is functional.
The next data set concerns Listeria. As to the kind of experiment: Antibacterial activity against Listeria assessed as inhibition of visible growth incubated for 20 to 24 hrs by microbroth serial dilution assay. As to conditions: time 20-24 hrs. Format: functional, organism-based.
Data set [12] can be described thus: AUC (0 to infinity) in pig urine at 10 mg/kg, po measured upto 240 mins by LC-MS/MS analysis. The class given is ADME, organism-based, Sus scrofa. Conditions: in vivo, 4 h.
Data set [13] in a line: AUC (0 to infinity) in NMRI female mouse at 60 mg/kg, sc by HPLC analysis. As to conditions: in vivo. The class given is ADME, organism-based.
Data set [14] can be described thus: Half life in pig plasma at 10 mg/kg, po measured upto 240 mins by LC-MS/MS analysis. The class given is ADME, organism-based, Sus scrofa.
A short description of data set [15]: Clearance in pig plasma at 10 mg/kg, po measured upto 240 mins by LC-MS/MS analysis. Format: ADME, organism-based, Sus scrofa.
Data set [16] can be described thus: Elimination rate constant in NMRI female mouse at 30 mg/kg, iv by HPLC analysis. The class given is ADME, organism-based. As to conditions: in vivo.
The nature of data set [17]: Volume of distribution in pig plasma at 3 mg/kg, iv measured upto 240 mins by LC-MS/MS analysis. Format: ADME, organism-based, Sus scrofa.
Data set [18] can be described thus: Tmax in pig plasma at 3 mg/kg, iv measured upto 240 mins by LC-MS/MS analysis. The class given is ADME, organism-based, Sus scrofa.
The nature of data set [19]: Volume of distribution in NMRI female mouse at 60 mg/kg, sc by HPLC analysis. Format: ADME, organism-based. Conditions: in vivo.
Data set [20] is described as follows: Tmax in NMRI female mouse at 30 mg/kg, po by HPLC analysis. Format: ADME, organism-based. Conditions: in vivo.
Data set [21] is described as follows: Clearance in pig urine at 3 mg/kg, iv measured upto 240 mins by LC-MS/MS analysis. The class given is ADME, organism-based, Sus scrofa.
Data set [22] is described as follows: Elimination rate constant in NMRI female mouse at 20 mg/kg, sc by HPLC analysis. Conditions: in vivo. Format: ADME, organism-based.
The nature of data set [23]: Half life in NMRI female mouse at 30 mg/kg, iv by HPLC analysis. Format: ADME, organism-based. Conditions: in vivo.
Data set [24] can be described thus: Tmax in pig plasma at 10 mg/kg, po measured upto 240 mins by LC-MS/MS analysis. Format: ADME, organism-based, Sus scrofa.
Data set [25] in a line: AUC (0 to infinity) in NMRI female mouse at 30 mg/kg, po by HPLC analysis. As to conditions: in vivo. The class given is ADME, organism-based.
Data set [26] is described as follows: Half life in pig plasma at 3 mg/kg, iv measured upto 240 mins by LC-MS/MS analysis. Format: ADME, organism-based, Sus scrofa.
Data set [27] can be described thus: Half life in pig urine at 3 mg/kg, iv measured upto 240 mins by LC-MS/MS analysis. The class given is ADME, organism-based, Sus scrofa.
The nature of data set [28]: Plasma Concentration in pig at 3 mg/kg, iv measured upto 240 mins by LC-MS/MS analysis. The class given is ADME, organism-based, Sus scrofa.
Data set [29] in a line: Clearance in NMRI female mouse at 30 mg/kg, iv by HPLC analysis. Format: ADME, organism-based. As to conditions: in vivo.
Data set [30] can be described thus: Bioavailability in pig plasma at 10 mg/kg, po measured upto 240 mins by LC-MS/MS analysis. The class given is ADME, organism-based, Sus scrofa.
Data set [31] is described as follows: Cmax in NMRI female mouse at 20 mg/kg, sc by HPLC analysis. As to conditions: in vivo. The class given is ADME, organism-based.
The nature of data set [32]: Cmax in NMRI female mouse at 30 mg/kg, iv by HPLC analysis. As to conditions: in vivo. The class given is ADME, organism-based.
Data set [33] is described as follows: Clearance in NMRI female mouse at 60 mg/kg, sc by HPLC analysis. Conditions: in vivo. The class given is ADME, organism-based.
Data set [34] in a line: AUC (0 to infinity) in pig urine at 3 mg/kg, iv measured upto 240 mins by LC-MS/MS analysis. Format: ADME, organism-based, Sus scrofa. Conditions: in vivo, 4 h.
Data set [35] in a line: Tmax in pig urine at 10 mg/kg, po measured upto 240 mins by LC-MS/MS analysis. The class given is ADME, organism-based, Sus scrofa.
The nature of data set [36]: Elimination rate constant in pig urine at 10 mg/kg, po measured upto 240 mins by LC-MS/MS analysis. Format: ADME, organism-based, Sus scrofa.
The nature of data set [37]: Elimination rate constant in pig plasma at 3 mg/kg, iv measured upto 240 mins by LC-MS/MS analysis. The class given is ADME, organism-based, Sus scrofa.

Sequence of Voltage-gated inwardly rectifying potassium channel KCNH2 (Q12809 whole entry): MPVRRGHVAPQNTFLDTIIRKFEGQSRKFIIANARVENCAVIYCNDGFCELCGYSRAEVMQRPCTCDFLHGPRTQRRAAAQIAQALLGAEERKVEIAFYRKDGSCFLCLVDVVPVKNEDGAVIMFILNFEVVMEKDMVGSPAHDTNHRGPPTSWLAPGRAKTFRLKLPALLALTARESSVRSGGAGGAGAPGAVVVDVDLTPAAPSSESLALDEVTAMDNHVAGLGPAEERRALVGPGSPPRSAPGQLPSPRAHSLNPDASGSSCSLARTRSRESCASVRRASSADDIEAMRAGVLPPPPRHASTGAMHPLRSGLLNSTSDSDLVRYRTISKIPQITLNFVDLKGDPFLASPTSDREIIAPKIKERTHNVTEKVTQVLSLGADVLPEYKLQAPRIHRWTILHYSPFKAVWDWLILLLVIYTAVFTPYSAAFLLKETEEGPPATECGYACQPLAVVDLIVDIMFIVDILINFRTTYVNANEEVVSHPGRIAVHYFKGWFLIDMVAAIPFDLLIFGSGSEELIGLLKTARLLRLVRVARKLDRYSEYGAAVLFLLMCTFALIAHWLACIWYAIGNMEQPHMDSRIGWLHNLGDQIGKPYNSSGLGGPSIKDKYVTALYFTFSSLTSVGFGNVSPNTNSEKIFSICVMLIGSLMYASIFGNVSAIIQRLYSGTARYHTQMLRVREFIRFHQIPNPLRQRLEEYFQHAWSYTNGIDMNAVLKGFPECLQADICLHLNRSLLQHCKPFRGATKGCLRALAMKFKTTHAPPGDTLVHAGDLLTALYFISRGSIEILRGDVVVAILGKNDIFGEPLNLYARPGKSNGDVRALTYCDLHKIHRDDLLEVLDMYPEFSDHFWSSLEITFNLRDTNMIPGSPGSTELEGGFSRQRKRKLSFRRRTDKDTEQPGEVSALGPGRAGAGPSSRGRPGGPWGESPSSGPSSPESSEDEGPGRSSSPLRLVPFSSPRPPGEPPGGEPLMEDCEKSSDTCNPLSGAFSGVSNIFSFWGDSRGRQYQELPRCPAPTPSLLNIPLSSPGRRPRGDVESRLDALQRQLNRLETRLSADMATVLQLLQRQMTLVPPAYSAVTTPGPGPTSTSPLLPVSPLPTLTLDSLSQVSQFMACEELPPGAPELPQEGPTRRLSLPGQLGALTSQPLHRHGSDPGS
Sequence of ATP-dependent translocase ABCB1 (P08183 whole entry): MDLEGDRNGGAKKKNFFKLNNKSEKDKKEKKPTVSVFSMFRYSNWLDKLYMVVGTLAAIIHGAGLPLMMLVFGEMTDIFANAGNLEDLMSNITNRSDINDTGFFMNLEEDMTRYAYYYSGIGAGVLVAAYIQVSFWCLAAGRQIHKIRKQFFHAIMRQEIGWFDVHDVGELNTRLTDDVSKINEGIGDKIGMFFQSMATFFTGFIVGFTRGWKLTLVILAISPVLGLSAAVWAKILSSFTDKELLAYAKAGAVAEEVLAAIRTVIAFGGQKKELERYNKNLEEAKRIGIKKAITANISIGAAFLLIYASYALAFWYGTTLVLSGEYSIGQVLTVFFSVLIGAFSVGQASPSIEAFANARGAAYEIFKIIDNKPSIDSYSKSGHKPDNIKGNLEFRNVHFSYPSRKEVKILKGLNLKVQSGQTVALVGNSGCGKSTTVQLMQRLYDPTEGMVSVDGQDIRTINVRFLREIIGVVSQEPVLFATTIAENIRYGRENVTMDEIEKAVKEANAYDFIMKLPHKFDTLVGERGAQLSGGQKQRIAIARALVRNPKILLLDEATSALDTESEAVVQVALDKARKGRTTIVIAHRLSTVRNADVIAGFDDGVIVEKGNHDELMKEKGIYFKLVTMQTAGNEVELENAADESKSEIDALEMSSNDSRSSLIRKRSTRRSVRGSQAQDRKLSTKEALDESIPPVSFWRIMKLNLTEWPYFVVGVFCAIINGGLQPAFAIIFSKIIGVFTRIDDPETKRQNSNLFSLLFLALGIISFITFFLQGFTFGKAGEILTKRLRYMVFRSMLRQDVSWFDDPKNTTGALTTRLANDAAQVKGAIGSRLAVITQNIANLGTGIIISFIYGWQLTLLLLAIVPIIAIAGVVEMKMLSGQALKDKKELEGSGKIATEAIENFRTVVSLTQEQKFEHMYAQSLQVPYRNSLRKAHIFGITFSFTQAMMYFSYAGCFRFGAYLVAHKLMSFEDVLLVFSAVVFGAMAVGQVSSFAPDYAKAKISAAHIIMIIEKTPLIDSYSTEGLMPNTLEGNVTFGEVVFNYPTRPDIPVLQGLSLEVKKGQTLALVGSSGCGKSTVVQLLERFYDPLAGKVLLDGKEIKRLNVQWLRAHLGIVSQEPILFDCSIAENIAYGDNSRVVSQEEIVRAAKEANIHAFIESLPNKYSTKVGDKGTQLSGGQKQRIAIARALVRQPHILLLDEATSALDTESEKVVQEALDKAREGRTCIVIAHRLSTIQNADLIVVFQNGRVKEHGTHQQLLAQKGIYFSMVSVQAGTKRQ
Sequence of Cytochrome P450 3A4 (P08684 whole entry): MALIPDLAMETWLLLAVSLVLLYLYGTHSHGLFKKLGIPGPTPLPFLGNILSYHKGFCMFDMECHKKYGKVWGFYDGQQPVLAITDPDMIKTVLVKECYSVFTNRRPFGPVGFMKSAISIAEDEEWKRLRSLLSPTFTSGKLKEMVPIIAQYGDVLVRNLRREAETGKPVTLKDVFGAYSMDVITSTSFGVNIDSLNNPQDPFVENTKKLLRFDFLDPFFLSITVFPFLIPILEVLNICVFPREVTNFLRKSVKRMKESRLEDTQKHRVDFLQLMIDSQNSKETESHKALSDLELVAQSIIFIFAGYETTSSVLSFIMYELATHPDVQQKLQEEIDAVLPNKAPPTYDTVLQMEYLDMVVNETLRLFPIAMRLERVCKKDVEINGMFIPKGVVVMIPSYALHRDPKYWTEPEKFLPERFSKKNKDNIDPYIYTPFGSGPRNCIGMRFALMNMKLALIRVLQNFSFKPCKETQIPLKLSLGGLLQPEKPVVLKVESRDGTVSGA

In the case of `C=C[C@]1(C)C[C@@H](OC(=O)CS[C@@H]2CC[C@@H](N)C[C@H]2O)[C@]2(C)[C@H](C)CC[C@]3(CCC(=O)[C@H]32)[C@@H](C)[C@@H]1O` [LEFAMULIN], the fold change (FC) came to 32 in the data set on Staphylococcus aureus [1]; 16 in the data set with Staphylococcus aureus [2]; 8 with Staphylococcus aureus [3]; 8 in the data set on Staphylococcus aureus [5]; 128 in the data set with Staphylococcus aureus [6]; 32 with Staphylococcus aureus [7]. The fold change (FC) in the data set on Staphylococcus aureus [9] is 16; in the data set with Staphylococcus aureus [11], 4. Moreover, the Ki (commonly a measure of affinity in units of concentration, obtained from inhibition or displacement) on Cytochrome P450 3A4 stood at 0.86 µM. The result (in data set [4]; in the data set on Listeria) was inactive. The values for the IC50 in [8] and in data set [10] were 34.1 µM and 78.2 µM, respectively.

As to `C=C[C@]1(C)C[C@@H](OC(=O)Cn2cc(-c3ccc(Cn4cnc5c(N6CCNCC6)ncnc54)nc3)nn2)[C@]2(C)[C@H](C)CC[C@]3(CCC(=O)[C@H]32)[C@@H](C)[C@@H]1O`, the AUC amounted to 22.5 µg/mL/min in data set [12], 428 µg/mL/min in [13], 1.6 µg/mL/min in [25] and 821 µg/mL/min in [34]. Moreover, the half-life (usually the time needed for the level to fall by half in the phase considered) in data set [14] is 22.2 min; in data set [23], 52.8 min; in [26], 75 min; in [27] it was 27.6 min. Also, the CL/F (usually the apparent clearance, not corrected for the fraction that reaches the circulation) in data set [15] is 1420 mL/min/kg; in data set [33], 140 mL/min/kg. Also, the k el in [16] was 0.000218 s⁻¹; in data set [22] it was 9.33e-05 s⁻¹. For the same compound, the Vd worked out at 3.46 L/kg in data set [17] and 22 L/kg in data set [19]. Moreover, the Tmax – broadly, the time from dosing to the highest level – in [18] is 0 h; in data set [20], 15 min; in data set [24], 15 min; in [35] it was 60 min. In data set [21], this compound had a CL renal at 4 h of 3.67 mL/min/kg. In data set [28], this compound displayed a concentration at 4 h of 866 ng/mL. The clearance (commonly a measure of how efficiently the substance is removed, as volume per time) in data set [29] was 69.8 mL/min/kg. Besides, the bioavailability (commonly dose-corrected exposure relative to a reference, in per cent) in data set [30] was determined as 6%. Further, the Cmax (commonly the highest concentration seen after dosing) in [31] amounted to 1180 ng/mL; in data set [32], 8560 ng/mL. Also, the values for the k el at 4 h in data set [36] and in data set [37] were 8.67e-05 s⁻¹ and 0.000155 s⁻¹, respectively.
